In PMC11514314, “The aquastatin biosynthetic gene cluster encodes a versatile polyketide synthase capable of synthesising heteromeric depsides with diverse alkyl side chains” (Chemical Science, 2024):
Values after ≈ are worked out from the molar mass of the structure shown. Read-outs that look alike come from different tables or passages of the source.

Key:
B. subtilis (ATCC 6633) = assay: Antibacterial ProTOX bioassay, B. subtilis; format: cell-based; details: Bacillus subtilis, ATCC6633; B. subtilis ATCC 6633, 48 h, 28 °C; read-out: Minimum inhibitory concentration (MIC) B. subtilis
Method: (§1) 12. Bioactivity screening.
(§2) Purified metabolites were dissolved in DMSO to create stock solutions of 10,000 µg/mL. An aliquot from each stock solution was transferred to the first well of Rows B to G on a 96-well microtitre plate and then serially diluted two-fold with DMSO across the 12 wells of the plate to achieve a 2,048-fold concentration gradient. Bioassay medium was added to an aliquot of each diluted solution to achieve a 100-fold dilution in the final bioassay. This […]
(§3) 0.1 µg/mL in 2% DMSO for yeasts. Row A served as a control with no test compound (indicating no inhibition), and Row H was left uninoculated (serving as a control for complete inhibition).
(§4) B. subtilis (ATCC 6633), S. aureus (ATCC 25923) and MRSA (ATCC 33592) were used as indicator species for antibacterial activity, employing the ProTOX bioassay platform. A bacterial suspension (50 mL in a 250 mL flask) was prepared in nutrient media by cultivating it for 24 h at 250 rpm and 28 °C. The suspension was diluted to an absorbance of 0.01 absorbance units per mL, and 10 µL aliquots were added to the wells of a 96-well microtitre plate containing the test compounds dispersed in 190 µL of nutrient broth (Amyl) with 10 µL resazurin (12.5 µg/mL). The plates were incubated at 28 °C for 48 h, during which the positive control wells changed colour from blue to light pink. Tetracycline was employed as a control for B. subtilis, while ampicillin was used for S. aureus and MRSA. MIC endpoints were determined visually. Absorbance was measured using a Multiskan Skyhigh Microplate Spectrophotometer (Thermo Fisher Scientific) at 605 nm.

S. aureus (ATCC 25923) = assay: Antibacterial ProTOX bioassay, S. aureus; format: cell-based; details: Staphylococcus aureus, ATCC25923; S. aureus ATCC 25923, 48 h, 28 °C; read-out: Minimum inhibitory concentration (MIC) S. aureus
Method: as §1, §2, §3, §4

MRSA (ATCC 33592) = assay: Antibacterial ProTOX bioassay, MRSA; format: cell-based, methicillin-resistant S. aureus; details: MRSA ATCC 33592, 48 h, 28 °C; for MIC: Staphylococcus aureus, read-out: Minimum inhibitory concentration (MIC) MRSA
Method: as §1, §2, §3, §4

[1] = system: Saccharomyces cerevisiae (ATCC 9763); assay: Antifungal EuTOX bioassay, S. cerevisiae; format: cell-based; details: S. cerevisiae ATCC 9763, 48 h; for MIC: Saccharomyces cerevisiae, ATCC9763, read-out: Minimum inhibitory concentration (MIC) S. cerevisiae
Method: as §1, §2
(§5) 0.1 µg/mL in 2% DMSO for yeasts. Row A served as a control with no test compound (indicating no inhibition), and Row H was left uninoculated (serving as a control for complete inhibition). […]
(§6) MIC endpoints were determined visually. Absorbance was measured using a Multiskan Skyhigh […]
Saccharomyces cerevisiae (ATCC 9763) was used as indicator species for antifungal activity, employing the EuTOX bioassay platform. A yeast suspension (50 mL in a 250 mL flask) was prepared in 1% malt extract broth by cultivating it for 24 h at 250 rpm and 24 °C. The suspension was diluted to absorbances of 0.03 absorbance units per mL and 30 µL were added to the wells of a 96-well microtitre plate containing the test compounds dispersed in 100 µL of malt extract agar with bromocresol green (50 µg/mL). The plates were incubated at 28 °C for 48 h, during which the positive control wells changed colour from blue to yellow. Blasticidin S HCl was used

[2] = system: NS-1 (ATCC TIB-18) mouse myeloma cells; assay: Cytotoxicity resazurin assay, NS-1 cells; format: cell-based; details: for IC50: read-out: IC50 NS-1; for cytotoxicity against NS-1 cells (in words): mouse myeloma NS-1
Method: as §1, §2, §5, §6, §6
(§7) NS-1 (ATCC TIB-18) mouse myeloma and NFF (ATCC PCS -201) human neonatal foreskin fibroblast cells were each inoculated in 96-well microtitre plates (190 µL) at 50,000 cells/mL in DMEM (Dulbecco's Modified Eagle Medium + 10% fetal bovine serum (FBS) + 1% penicillin/streptomycin (10,000 U/mL / 10,000 µg/mL, Life Technologies Cat. No. 15140122), together with resazurin (250 µg/mL; 10 µL) and incubated in 37 °C (5% CO2) incubator. The plates were incubated for 96 h during which time the positive control wells change colour from a blue to pink colour. The absorbance of each well was measured using Multiskan Skyhigh Microplate Spectrophotometer (Thermofisher Scientific) at 605 nm. Sparsomycin was used as a control. The IC50 values were determined using a sigmoidal dose-response model with variable slope in GraphPad Prism 8.

[3] = system: NFF (ATCC PCS-201) human neonatal foreskin fibroblast cells; assay: Cytotoxicity resazurin assay, NFF cells; format: cell-based; details: for IC50: Homo sapiens, 96 h, read-out: IC50 NFF
Method: as §1, §2, §5, §6, §6, §7

[4] = system: Saccharomyces cerevisiae (ATCC 9763); details: previously reported; cited from earlier work
[5] = system: fatty acid synthase II (FAS II); details: cited from earlier work
[6] = system: methicillin-resistant S. aureus (MRSA); set-up: method as in PMID 19952429; details: cited from earlier work
[7] = NS1, mouse myeloma NS-1 ATCC TIB-18, 96 h
[8] = neonatal foreskin fibroblast NFF

Molecule | MIC (B. subtilis (ATCC 6633)) | MIC (S. aureus (ATCC 25923)) | MIC (MRSA (ATCC 33592)) | MIC [1] | IC50 [2, 7] | IC50 [3, 8] | cytotoxicity against NS-1 cells (in words) [2] | cytotoxicity against NFF cells (in words) [3] | IC50 ([2]; Mus musculus, NS1, 96 h) | IC50 ([3]; Fibroblast) | antifungal activity against S. cerevisiae (in words) [4] | Minimum inhibitory concentration (MIC) S. cerevisiae [1] | FAS II inhibitory activity [5] | Minimum inhibitory concentration (MIC) MRSA (MRSA (ATCC 33592)) | antibacterial activity against MRSA [6]
CCCCCC/C=C\CCCCCCCc1cc(O[C@@H]2O[C@H](CO)[C@H](O)[C@H](O)[C@H]2O)cc(O)c1C(=O)OC [4c, capricostatin C] | > 100 µg/mL | > 100 µg/mL | > 100 µg/mL | > 200 µg/mL | 6.3 µg/mL (≈ 11.7 µM) | 6.3 µg/mL (≈ 11.7 µM) |  |  |  |  |  |  |  |  | 
CCCCCCCCCCCCCCCc1cc(O)cc(O)c1C(=O)OC [1e, aquastatin E] | > 100 µg/mL | > 100 µg/mL | > 100 µg/mL | > 200 µg/mL | > 100 µg/mL | > 100 µg/mL |  |  |  |  |  |  |  |  | 
CCCCCCCCCCCCCCCc1cc(O)cc(O)c1 [compound 6, adipostatin] | > 100 µg/mL | > 100 µg/mL | 25 µg/mL (≈ 78 µM) | > 200 µg/mL | 6.3 µg/mL (≈ 19.7 µM) | 6.3 µg/mL (≈ 19.7 µM) |  |  |  |  |  |  |  |  | 
CCCCCCCCCCCCCc1cc(O[C@@H]2O[C@H](CO)[C@H](O)[C@H](O)[C@H]2O)cc(O)c1C(=O)Oc1cc(C)c(C(=O)O)c(O)c1 [3a, Ariestatin A] | 1.6 µg/mL (≈ 2.47 µM) | 3.1 µg/mL (≈ 4.78 µM) | 6.3 µg/mL (≈ 9.71 µM) | > 200 µg/mL | > 100 µg/mL | > 100 µg/mL |  |  |  |  |  |  |  |  | 
CCCCCCCCCCCCCc1cc(O[C@@H]2O[C@H](CO)[C@H](O)[C@H](O)[C@H]2O)cc(O)c1C(=O)OC [3c, Ariestatin C] | > 100 µg/mL | > 100 µg/mL | > 100 µg/mL | > 200 µg/mL | 0.2 µg/mL (≈ 0.39 µM) | > 100 µg/mL | cytotoxicity was observed | no activity was detected |  |  |  |  |  |  | 
CCCCCCCCCCCCCc1cc(O[C@@H]2O[C@H](CO)[C@H](O)[C@H](O)[C@H]2O)cc(O)c1C(=O)O [3d, Ariestatin D] | 25 µg/mL (≈ 50.1 µM) | > 50 µg/mL | > 50 µg/mL | 3.1 µg/mL (≈ 6.22 µM) | > 50 µg/mL | > 50 µg/mL | did not exhibit cytotoxicity | did not exhibit cytotoxicity |  |  |  |  |  |  | 
Cc1cc(O)cc(O)c1C(=O)O [compound 5, orsellinic acid] | > 100 µg/mL | > 100 µg/mL | > 100 µg/mL | > 200 µg/mL | > 100 µg/mL | > 100 µg/mL |  |  |  |  |  |  |  |  | 
CSC[S@+]([O-])C[C@H](CO)NC(=O)/C=C/c1c(C)[nH]c(=O)[nH]c1=O [sparsomycin, reference compound] |  |  |  |  |  |  |  |  | 1.7 µg/mL (≈ 4.7 µM) | 1.7 µg/mL (≈ 4.7 µM) |  |  |  |  | 
CCCCCC/C=C\CCCCCCCc1cc(O)cc(O)c1C(=O)O [4f, Capricostatin F] | 0.8 µg/mL (≈ 2.21 µM) | 6.3 µg/mL (≈ 17.4 µM) | 6.3 µg/mL (≈ 17.4 µM) | > 200 µg/mL | 0.05 µg/mL (≈ 0.138 µM) | > 100 µg/mL |  |  |  |  |  |  |  |  | 
CCCCCCCCCCCCCc1cc(O)cc(O)c1C(=O)Oc1cc(C)c(C(=O)O)c(O)c1 [3b, Ariestatin B] | 1.6 µg/mL (≈ 3.29 µM) | 12.5 µg/mL (≈ 25.7 µM) | 12.5 µg/mL (≈ 25.7 µM) | > 200 µg/mL | > 50 µg/mL | > 50 µg/mL |  |  |  |  |  |  |  |  | 
CCCCCC/C=C\CCCCCCCc1cc(O[C@@H]2O[C@H](CO)[C@H](O)[C@H](O)[C@H]2O)cc(O)c1C(=O)O [4d, Capricostatin D] | 25 µg/mL (≈ 47.7 µM) | > 50 µg/mL | > 50 µg/mL | 3.1 µg/mL (≈ 5.91 µM) | > 50 µg/mL | > 100 µg/mL | did not exhibit cytotoxicity | did not exhibit cytotoxicity |  |  |  |  |  |  | 
CCCCCCCCCCCCCCCc1cc(O)cc(O)c1C(=O)O [1f, corticiolic acid] | 0.8 µg/mL (≈ 2.19 µM) | 3.1 µg/mL (≈ 8.5 µM) | 3.1 µg/mL (≈ 8.5 µM) | > 200 µg/mL | 25 µg/mL (≈ 68.6 µM) | > 100 µg/mL |  |  |  |  |  |  |  |  | 
CCCCCC/C=C\CCCCCCCc1cc(O)cc(O)c1C(=O)Oc1cc(C)c(C(=O)O)c(O)c1 [4b, Capricostatin B] | 1.6 µg/mL (≈ 3.12 µM) | 12.5 µg/mL (≈ 24.4 µM) | 12.5 µg/mL (≈ 24.4 µM) | > 200 µg/mL | 0.05 µg/mL (≈ 0.0975 µM) | > 100 µg/mL |  |  |  |  |  |  |  |  | 
geministatin D |  |  |  |  |  |  |  |  |  |  | displayed antifungal activity |  |  |  | 
CN(CC[C@H](N)CC(=O)N[C@@H]1C=C[C@@H](n2ccc(N)nc2=O)O[C@H]1C(=O)O)C(=N)N.Cl [blasticidin S HCl, reference compound] |  |  |  |  |  |  |  |  |  |  |  | 3.1 µg/mL |  |  | 
CCCCCCCCCCCCCCCc1cc(O[C@@H]2O[C@H](CO)[C@H](O)[C@H](O)[C@H]2O)cc(O)c1C(=O)OC [1c, aquastatin C] | > 100 µg/mL | > 100 µg/mL | > 100 µg/mL | > 200 µg/mL | > 100 µg/mL | > 100 µg/mL |  |  |  |  |  |  | do not demonstrate |  | 
CCCCCC/C=C\CCCCCCCc1cc(O[C@@H]2O[C@H](CO)[C@H](O)[C@H](O)[C@H]2O)cc(O)c1C(=O)Oc1cc(C)c(C(=O)O)c(O)c1 [4a, Capricostatin A] | 1.6 µg/mL (≈ 2.37 µM) | 3.1 µg/mL (≈ 4.59 µM) | 6.3 µg/mL (≈ 9.34 µM) | > 200 µg/mL | > 100 µg/mL | > 100 µg/mL |  |  |  |  |  |  |  |  | 
CC1(C)S[C@@H]2[C@H](NC(=O)[C@H](N)c3ccccc3)C(=O)N2[C@H]1C(=O)O [ampicillin, reference compound] |  | 3.1 µg/mL (≈ 8.87 µM) | > 100 µg/mL |  |  |  |  |  |  |  |  |  |  | >100 µg/mL | 
CCCCCCCCCCCCCCCc1cc(O)cc(O)c1C(=O)Oc1cc(C)c(C(=O)O)c(O)c1 [1b, Aquastatin B] | 1.6 µg/mL (≈ 3.11 µM) | > 100 µg/mL | > 50 µg/mL | > 200 µg/mL | > 50 µg/mL | > 100 µg/mL |  |  |  |  |  |  | do not demonstrate |  | demonstrated antibacterial activity
CN(C)[C@@H]1C(O)=C(C(N)=O)C(=O)[C@@]2(O)C(O)=C3C(=O)c4c(O)cccc4[C@@](C)(O)[C@H]3C[C@@H]12 [tetracycline, reference compound] | 6.3 µg/mL (≈ 14.2 µM) |  |  |  |  |  |  |  |  |  |  |  |  |  | 
CCCCCCCCCCCCCCCc1cc(O[C@@H]2O[C@H](CO)[C@H](O)[C@H](O)[C@H]2O)cc(O)c1C(=O)O [1d, Aquastatin D] | 3.1 µg/mL (≈ 5.89 µM) | 12.5 µg/mL (≈ 23.7 µM) | 6.3 µg/mL (≈ 12 µM) | 3.1 µg/mL (≈ 5.89 µM) | > 50 µg/mL | > 100 µg/mL | did not exhibit cytotoxicity | did not exhibit cytotoxicity |  |  |  |  |  |  | 
